Source: patent US20140100290A1, “Method of treating a prostate condition” (priority 2012, published 2014)
Read-outs that look alike come from different tables or passages of the source.

Tests used:
[1] = test system: PC-3 cells; assay: Phosphatidylserine externalization by fluorescence microscopy (PSVue 480) in PC-3 cells; assay type: cell-based, Human; conditions: 10 μM and 1000 μM, 48 hours, dose-dependent
Protocol: (§1) Cell Line and Culture Conditions • Human metastatic, androgen insensitive prostate cancer cells, PC-3, were obtained from ATCC (Manassas, Va., USA). Cells were grown in F-12K medium supplemented with 2 mM glutamine, 10% FBS, 100 U/mL penicillin, and 100 μg/mL streptomycin. PC-3 cells were maintained in a humidified atmosphere of 5% CO2 at 37° C. in T-75 flasks and were subcultured when confluent.
One of the earliest events to occur in apoptosis or programmed cell death is externalization of phosphatidylserine (PS), a membrane phospholipid restricted to the inner leaflet of the lipid bilayer. Redistribution of PS from inner leaflet of plasma membrane lipid bilayer to the outer leaflet occurs in cells undergoing apoptosis. The PSVue™ 480 reagent kit was used to perform the phosphatidylserine (PS) externalization assay. The principle behind this assay involves a strong binding of PSVue™ 480 (fluorescent probe) to the anionic PS residues exposed on the surface of apoptotic cells by its Zn (II)-dipicolylamine (Zn-DPA) functionality, making it a useful apoptotic sensor.
To detect PS externalization, PC-3 cells were seeded at a density of 0.5×10^6 cells/well in flat-bottom, 6-well microtiter plates and were allowed to incubate for 24 h. After 24 h of incubation at 37° C., cells were treated with 10 μM and 1000 μM of carvacrol for 48 h. […]

[2] = test system: PC-3 cells; assay: Morphological analysis of PC-3 cells; assay type: cell-based, Human; conditions: 10 μM and 1000 μM, 48 h
Protocol: as §1
These typical features of apoptosis were used to evaluate the mechanism of decreased cell proliferation by carvacrol in PC-3 cells.
In order to identify the morphological changes in PC-3 cells after treatment with carvacrol, 2×10^6 cells/well were seeded in flat-bottom, 6-well microtiter plates, allowed to grow for 24 h, then treated with 10 μM and 1000 μM of carvacrol, and incubated further for 48 h at 37° C. After incubation, cells were washed twice with PBS, and microscopic photographs of morphological changes of the cells were captured using a fluorescent microscope, Axiovert 200M (Carl Zeiss MicroImaging Inc, NY, USA). 1.15% EtOH was used as a solvent control.

[3] = test system: LNCaP cells; assay: XTT cell proliferation (cell viability) assay in LNCaP cells; assay type: cell-based; conditions: Homo sapiens, mean±S.E.M., read-out: IC50 (anti-proliferative activity, XTT)
Protocol: Human metastatic prostate cancer cells, LNCaP, were obtained from ATCC (Manassas, Va., USA). Cells were grown in RPMI-1640 medium supplemented with 2mM glutamine, 10% FBS, 100 U/mL penicillin, and 100 μg/mL streptomycin. LNCaP cells were maintained in a humidified atmosphere of 5% CO2 at 37° C. in T-75 flasks and were subcultured when confluent. Experiments were conducted using cells with passage numbers ranging from 5-20.
The anti-proliferative effect of carvacrol was assessed in human metastatic prostate cancer cells, LNCaP, using the XTT cell proliferation assay. This assay is a colorimetric assay that detects cellular metabolic activities. In this assay, the second generation tetrazolium dye XTT (2,3-bis (2-methoxy-4-nitiro-5-sulfophenyl)-5-[(phenylamino)-carbonyl]-2H tetrazolium hydroxide), is reduced to a soluble, brightly orange colored formazan derivative. To improve the sensitivity of XTT assay, PMS (N-methyl dibenzopyrazine methyl sulfate), an intermediate electron carrier is used. This color change is accomplished by breaking apart the positively charged quaternary tetrazole ring. Mitochondrial oxidoreductases present in viable cells are thought to contribute substantially to the XTT response with their reductants being transferred to the plasma membrane.
LNCaP cells at the density of 10,000 cells/well were seeded into flat-bottom, 96-well microtiter plates (100 μL/well) and allowed to attach and grow for 24 hours, the cells were then treated with 0.1 μM, 1 μM, 10 μM, 100 μM, 1000 μM, and 3000 μM of carvacrol for 24, 48, and 96 hours. […] After incubation, an orange colored formazan product was formed and the absorbance was read at 475 nm using BioTek microplate reader. […] Cell viability of the drug-treated cells was calculated as a fraction of solvent control and the anti-proliferative activity of carvacrol was expressed in terms in IC50 valuesIC50 values of carvacrol were calculated using GraphPad Prism 4 (GraphPad Software Inc., Calif., USA), and are expressed as the means of ±S.E.M> of n≧4 experiments, with triplicate determinations in each experiment. […]

Q: Cc1ccc(C(C)C)cc1O [Carvacrol] was tested. Which “externalization of phosphatidylserine residues (PSVue 480 positive cells)” value [1] did it give?
A: showed externalization of phosphatidylserine residues

Q: And the “morphological changes (features of apoptosis)” value [2]?
A: exhibited typical features of apoptosis like rounding of cells, membrane blebbing, and cell shrinkage

Q: And the IC50 ([3]; 24 hours treatment)?
A: 1670 ± 179 µM

Q: And the IC50 ([3]; 48 hours treatment)?
A: 269 ± 58 µM

Q: And the IC50 ([3]; 96 hours treatment)?
A: 13.7 ± 4.42 µM
